Assay in all cases: NCI anticancer screen, dose series, 48 h
Assay [1] has as its system SNB-19.
Assay [2] concerns U-251.
Assay [3] relates to HCT-15.
In assay [4] the test system is SF-268.
Assay [5] has as its system SF-295.
Assay [6] relates to SN12C.
For assay [7], the system named is 786-0.
Assay [8] concerns OVCAR-4.
The test system of assay [9] is CAKI-1.
The subject of assay [10] is SK-MEL-28.
Assay [11] relates to CCRF-CEM.
Assay [12] concerns UO-31.
Assay [13] concerns TK-10.
Assay [14] has as its system MOLT-4.
Assay [15] has as its system HL-60.
In assay [16] the test system is SW-620.
Assay [17] concerns UACC-62.
For assay [18], the system named is M14.
Assay [19] has as its system IGROV-1.
Assay [20] has as its system SK-OV-3.

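Growth conditions: 96-well plates. Treatment: test compound, 48 hours, 5 concentrations. Analysis: linear interpolation between bracketing concentrations; unreached endpoints set to highest concentration. Here, GI50 denotes the concentration required for 50% inhibition of growth.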 Active and inactive are the calls of the source. Rule as the data show it: active = GI50 up to about 1.1 µM and inactive = higher.

As to `COc1ccccc1/C=C1\C(=O)N(C(=O)c2ccc(NC(C)=O)cc2)N=C1C`, the GI50 was > 100 µM (inactive) in assay [1]; > 100 µM (inactive) in [2]; greater than 100 µM in assay [3]; > 100 µM (inactive) in [4]; > 100 µM (inactive) in [5]; > 100 µM (inactive) in assay [6]. The GI50 in assay [7], in [8], in [9], in [10], in assay [11] and in assay [12] was > 100 µM (inactive) in each case. Further, the GI50 in [13], in [14], in [15] and in assay [16] was > 100 µM (inactive) throughout.
Turning to `CN1C(=O)c2ccccc2NC(=O)C12O[C@@H]2c1cccc(O)c1` (some centres undefined), the GI50 in [1] was > 100 µM (inactive); in assay [2], > 100 µM (inactive); in assay [3] it was greater than 100 µM; in assay [4], > 100 µM (inactive); in assay [5], > 100 µM (inactive); in assay [17], > 100 µM (inactive). In addition, the GI50 in [6], in assay [7], in [8], in assay [18], in assay [9] and in assay [10] was > 100 µM (inactive) in each case. Moreover, the GI50 in [11], in assay [12], in assay [13], in [14], in assay [19] and in assay [15] was > 100 µM (inactive) throughout. In addition, the GI50 in assay [16] was > 100 µM (inactive).
With `COc1ccc2c([nH]c3cc(O)c(C)cc32)c1C=O`, the GI50 in assay [1] was > 25 µM (inactive); in assay [2] it was > 25 µM (inactive); in [3] it was 14.8 µM; in [4], > 25 µM (inactive); in assay [17] it was > 25 µM (inactive); in assay [6] it was > 25 µM (inactive). The GI50 in [7] is > 25 µM (inactive); in [8] it was > 25 µM (inactive); in [18], > 25 µM (inactive); in assay [10], > 25 µM (inactive); in [11] it was 23.6 µM (inactive); in [12], > 25 µM (inactive). In addition, the GI50 in [13] is > 25 µM (inactive); in [14], 11.2 µM (inactive); in assay [19], > 25 µM (inactive); in [15], 15.9 µM (inactive); in [20], > 25 µM (inactive); in assay [16] it was > 25 µM (inactive).
With `C#CC1(O)CCC2[C@@H]3CCc4cc(Oc5nc(F)nc(-c6c7ccccc7c(SCC)n6CCC)n5)ccc4C3CC[C@@]21C` (some centres undefined), the GI50 in assay [2] is 54.6 µM (inactive); in assay [3] it was greater than 100 µM; in assay [4], 57.5 µM (inactive); in assay [5], 65.8 µM (inactive); in assay [17] it was 89.7 µM (inactive); in assay [7] it was > 100 µM (inactive). The GI50 in assay [8] is > 100 µM (inactive); in [18], 40.5 µM (inactive); in assay [10] it was 50.7 µM (inactive); in [11], 39.4 µM (inactive); in assay [12] it was 33.3 µM (inactive); in [13] it was > 100 µM (inactive). Further, the GI50 in assay [14] was 28.7 µM (inactive); in assay [19], 94.6 µM (inactive); in assay [15], > 100 µM (inactive); in [20] it was > 100 µM (inactive); in [16], > 100 µM (inactive).
Regarding `COC(=O)c1cc2c(c3c1CC(Cc1ccccc1)C3=O)CCC2` (centres undefined), the GI50 in [1] was > 100 µM (inactive); in assay [2], 62.8 µM (inactive); in assay [3], 35 µM; in assay [4], 91.6 µM (inactive); in assay [5], > 100 µM (inactive); in assay [17], 32.7 µM (inactive). Moreover, the GI50 in assay [6] is 78.2 µM (inactive); in [7] it was 71.8 µM (inactive); in assay [8] it was 81.1 µM (inactive); in assay [18], 93.3 µM (inactive); in [10], > 100 µM (inactive); in [11] it was 36.5 µM (inactive). The GI50 in [13] is > 100 µM (inactive); in [14], 53.6 µM (inactive); in [19], 73.3 µM (inactive); in assay [15], > 100 µM (inactive); in [20], 80.5 µM (inactive); in assay [16] it was > 100 µM (inactive).
For `O=c1oc2cc(O)ccc2c2[nH]c3cc(O)ccc3c12`, the GI50 is 18.6 µM (inactive) in assay [1]; 21.4 µM (inactive) in assay [2]; 27 µM in [3]; 22.8 µM (inactive) in [4]; 66.8 µM (inactive) in [5]; 15.5 µM (inactive) in assay [17]. The GI50 in assay [6] was 33.3 µM (inactive); in [7], 30.8 µM (inactive); in [8], 37.4 µM (inactive); in assay [18] it was 36.4 µM (inactive); in assay [10] it was 31.7 µM (inactive); in assay [11], 30.8 µM (inactive). Moreover, the GI50 in assay [12] is 26.2 µM (inactive); in assay [13] it was 36.3 µM (inactive); in assay [14] it was 34 µM (inactive); in [19] it was 23.1 µM (inactive); in assay [15], 21.8 µM (inactive); in assay [20], 22.2 µM (inactive). Moreover, in assay [16], the GI50 is 34 µM (inactive).
As for `CC(C)(C)C1CCC2c3c([nH]c4ccccc34)C3C(=O)N(c4ccccc4)C(=O)C3C2C1` (centres undefined), the GI50 in assay [1] is 6.59 µM (inactive); in assay [2] it was 3.1 µM (inactive); in assay [3] it was 22.8 µM; in assay [4], 13.6 µM (inactive); in [5] it was 4.86 µM (inactive); in [17] it was 20.9 µM (inactive). Also, the GI50 is 5.3 µM (inactive) in [6]; 7.14 µM (inactive) in assay [7]; 1.86 µM (inactive) in assay [8]; 4.43 µM (inactive) in assay [18]; 4.97 µM (inactive) in assay [10]; 2.77 µM (inactive) in assay [11]. The GI50 in [12] was 2.62 µM (inactive); in [13], 3.71 µM (inactive); in assay [14], 3.31 µM (inactive); in assay [19], 11.1 µM (inactive); in assay [15] it was 12.8 µM (inactive); in assay [20], 2.15 µM (inactive). The GI50 in assay [16] is 8.34 µM (inactive).
For `O=C(O)CSc1cc(-c2ccccc2)nc2ccccc12`, the GI50 in [1] was > 100 µM (inactive); in assay [2] it was 32.5 µM (inactive); in assay [3] it was 43.6 µM; in assay [4], 35 µM (inactive); in assay [5], 45.5 µM (inactive); in assay [17], 48.3 µM (inactive). Besides, the GI50 in assay [6] is 36.6 µM (inactive); in assay [7], 47.1 µM (inactive); in [8], 64 µM (inactive); in assay [18], 50.2 µM (inactive); in assay [9], 67.5 µM (inactive); in [10], 85.1 µM (inactive). Further, the GI50 in assay [12] was 42.8 µM (inactive); in assay [13], 64.1 µM (inactive); in assay [14], 46.3 µM (inactive); in [19], 57.7 µM (inactive); in assay [15] it was 22.2 µM (inactive); in [16], 44.3 µM (inactive).

These data come from ChEMBL document CHEMBL1201862, “PubChem BioAssay data set” (2004).
